Measured values taken from PMC6171417, “Carbonic anhydrase inhibition with a series of novel benzenesulfonamide-triazole conjugates” (Journal of Enzyme Inhibition and Medicinal Chemistry, 2018).

Experiments:
Experiment in all cases: cells
Set-up in all cases: species or system NCI human tumour cell line panel; NCI one-dose anti-proliferative screen, human tumour cell line panel, growth inhibition percent (GI%)
HCT-116 = details: Homo sapiens, HCT-116; growth inhibition (GI%), single dose
Protocol: (§1) Ten of the newly synthesised 1,2,3-triazolo benzenesulfonamide derivatives were selected by NCI (Bethesda, MD) for evaluating their anti-proliferative activity. The selected compounds were subjected to a primary in vitro one-dose ([…]) anti-proliferative assay against 57 human tumour cell lines following the previously reported method[30] and their obtained growth inhibition percent (GI%) are presented in Table 2. A subset of ten triazolo-benzenesulfonamides (3, 5, 6, 7, 9, 11, 16–18, and 20) were selected and subjected to an in vitro anti-proliferative screening against a panel of 57 cancer cell lines at NCI at an initial high dose ([…]). The human cell lines used were derived from nine cancer types: leukaemia, lung, colon, CNS, melanoma, ovarian, renal, prostate and breast cancers.

MCF7 = details: Homo sapiens, MCF7; growth inhibition (GI%), single dose
Protocol: as §1

RPMI-8226 = details: Homo sapiens, RPMI-8226; growth inhibition (GI%), single dose
Protocol: as §1

PC-3 = details: Homo sapiens, PC-3; growth inhibition (GI%), single dose
Protocol: as §1

HS 578T = details: Homo sapiens, Hs-578T; growth inhibition (GI%), single dose
Protocol: as §1

A498 = details: Homo sapiens, A498; growth inhibition (GI%), single dose
Protocol: as §1

NCI-H522 = details: Homo sapiens, NCI-H522; growth inhibition (GI%), single dose
Protocol: as §1

EKVX = details: Homo sapiens, EKVX; growth inhibition (GI%), single dose
Protocol: as §1

UACC-62 = details: Homo sapiens, UACC-62; growth inhibition (GI%), single dose
Protocol: as §1

CCRF-CEM = details: Homo sapiens, CCRF-CEM; growth inhibition (GI%), single dose
Protocol: as §1

NCI-H322M = details: Homo sapiens, NCI-H322M; growth inhibition (GI%), single dose
Protocol: as §1

OVCAR-8 = details: Homo sapiens, OVCAR-8; growth inhibition (GI%), single dose
Protocol: as §1

MOLT-4 = details: Homo sapiens, MOLT-4; growth inhibition (GI%), single dose
Protocol: as §1

HT29 = details: Homo sapiens, HT-29; growth inhibition (GI%), single dose
Protocol: as §1

A549/ATCC = details: Homo sapiens, A549; growth inhibition (GI%), single dose
Protocol: as §1

HOP-62 = details: Homo sapiens, HOP-62; growth inhibition (GI%), single dose
Protocol: as §1

NCI-H226 = details: Homo sapiens, NCI-H226; growth inhibition (GI%), single dose
Protocol: as §1

HL-60(TB) = details: Homo sapiens, HL-60; growth inhibition (GI%), single dose
Protocol: as §1

SK-OV-3 = details: Homo sapiens, SK-OV-3; growth inhibition (GI%), single dose
Protocol: as §1

T-47D = details: Homo sapiens, T47D; growth inhibition (GI%), single dose
Protocol: as §1

Compound | inhibition at 10 µM (HCT-116) [%] | inhibition at 10 µM (MCF7) [%] | inhibition at 10 µM (RPMI-8226) [%] | inhibition at 10 µM (PC-3) [%] | inhibition at 10 µM (HS 578T) [%] | inhibition at 10 µM (A498) [%] | inhibition at 10 µM (NCI-H522) [%] | inhibition at 10 µM (EKVX) [%] | inhibition at 10 µM (UACC-62) [%] | inhibition at 10 µM (CCRF-CEM) [%] | inhibition at 10 µM (NCI-H322M) [%] | inhibition at 10 µM (OVCAR-8) [%] | inhibition at 10 µM (MOLT-4) [%] | inhibition at 10 µM (HT29) [%] | inhibition at 10 µM (A549/ATCC) [%] | inhibition at 10 µM (HOP-62) [%] | inhibition at 10 µM (NCI-H226) [%] | inhibition at 10 µM (HL-60(TB)) [%] | inhibition at 10 µM (SK-OV-3) [%] | inhibition at 10 µM (T-47D) [%]
N#Cc1nnn(-c2ccc(S(N)(=O)=O)cc2)c1N [compound 3, 3] | 7.1 | 5.5 | 8.5 | 8.3 | 5.9 | 13.6 | 9.7 | 8.7 | 5.5 | 15.3 | 0 | 4.6 | 13.3 | 9.4 | 4.2 | 8 | 5.2 | 6.5 | 4.6 | 5.1
CCn1c(=S)[nH]c2c(nnn2-c2ccc(S(N)(=O)=O)cc2)c1=N [compound 20, 4-(6-ethyl-7-imino-5-thioxo-4,5,6,7-tetrahydro-3H-[1,2,3]triazolo[4,5-d]pyrimidin-3-yl)benzenesulfonamide] | – | 4.9 | 12.1 | 9.7 | 2.5 | 6.2 | 7.8 | 3.1 | 4.3 | 20.9 | 3.2 | 4.8 | 9.1 | – | 12.2 | – | 6.9 | 8.9 | 3.6 | –
N#Cc1nnn(-c2ccc(S(N)(=O)=O)cc2)c1/N=C/c1ccc(Cl)cc1 [compound 9, 9] | 1.2 | 4.7 | 12.3 | 9.3 | – | 8.6 | 10.5 | 4.2 | 6 | 15.9 | – | 7.4 | 6.9 | 0.4 | 16.1 | 0.1 | 4.8 | 12.6 | 9.9 | 11.5
N#Cc1nnn(-c2ccc(S(N)(=O)=O)cc2)c1NCC(=O)c1ccccc1 [compound 7, 7] | 5.1 | 6.7 | 12.5 | 15.9 | 1.7 | – | 16.1 | 9.2 | 4 | 16.4 | 8.8 | 2.4 | 10.2 | 4.5 | 6.7 | 8.3 | 11.8 | 11.6 | 8.2 | 4.6
N#Cc1c(-c2ccc(Cl)cc2)nc2c(nnn2-c2ccc(S(N)(=O)=O)cc2)c1N [compound 16, 4-(7-amino-5-(4-chlorophenyl)-6-cyano-3H-[1,2,3]triazolo[4,5-b]pyridin-3-yl)benzenesulfonamide] | 4.6 | 13.6 | 8.4 | 22.2 | 12.1 | 17.6 | 9.8 | 39.5 | 15.5 | 16.4 | – | 3.8 | 17.6 | 1.2 | 8.6 | 7.3 | 9.8 | 5.5 | 9.7 | 5.6
Nc1nc(=S)[nH]c2c1nnn2-c1ccc(S(N)(=O)=O)cc1 [compound 18, 4-(7-amino-5-thioxo-4,5-dihydro-3H-[1,2,3]triazolo[4,5-d]pyrimidin-3-yl)benzenesulfonamide] | – | 2.9 | 12.3 | 7.8 | 9.8 | 5.5 | 13.7 | 3.7 | 5.6 | 17.8 | 2.2 | 3.7 | 21.3 | 10.8 | 5.1 | 4.8 | 9.8 | 26.1 | 11.6 | 5.8
N#Cc1nnn(-c2ccc(S(N)(=O)=O)cc2)c1NS(=O)(=O)c1ccccc1 [compound 11, N-(4-cyano-1-(4-sulfamoylphenyl)-1H-1,2,3-triazol-5-yl)benzenesulfonamide] | 2.1 | 1.7 | 7.1 | 9.7 | – | – | 10.3 | 2 | 5.9 | 6.7 | 2.6 | 2.9 | 11.2 | 5.1 | 11.8 | 4.2 | – | 10.7 | 15.1 | 9.6
